{"source": "ChEMBL document CHEMBL1201862", "about": "“PubChem BioAssay data set” (2004)", "key": {"[1]": {"assay": "A Cell Based Secondary Assay To Explore Cytotoxicity of Compounds that Sensitize Mycobacterium Tuberculosis to Beta-Lactam Antibiotics.", "format": "functional"}, "[2]": {"target": "T1, Mannose-6-phosphate isomerase (Homo sapiens, UniProt P34949)", "T1 sequence (P34949 whole entry)": "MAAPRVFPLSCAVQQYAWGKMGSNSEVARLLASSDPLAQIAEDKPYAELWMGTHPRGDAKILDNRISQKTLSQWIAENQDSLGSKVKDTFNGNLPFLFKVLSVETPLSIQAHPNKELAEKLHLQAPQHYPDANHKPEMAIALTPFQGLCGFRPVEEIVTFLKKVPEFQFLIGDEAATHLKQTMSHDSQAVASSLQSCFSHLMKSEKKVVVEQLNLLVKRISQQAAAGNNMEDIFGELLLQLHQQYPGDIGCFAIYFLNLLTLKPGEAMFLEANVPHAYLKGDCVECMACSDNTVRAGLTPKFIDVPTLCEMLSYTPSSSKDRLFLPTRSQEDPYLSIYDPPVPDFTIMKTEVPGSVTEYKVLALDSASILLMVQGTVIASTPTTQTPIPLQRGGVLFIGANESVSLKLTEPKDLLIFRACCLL", "assay": "inhibitors of human PMI, primary screen, biochemical, fluorescence intensity, coupled assay (AID 1209)"}, "[3]": {"target": "T2, Mucolipin-3 (Homo sapiens, UniProt Q8TDD5)", "T2 sequence (Q8TDD5 whole entry)": "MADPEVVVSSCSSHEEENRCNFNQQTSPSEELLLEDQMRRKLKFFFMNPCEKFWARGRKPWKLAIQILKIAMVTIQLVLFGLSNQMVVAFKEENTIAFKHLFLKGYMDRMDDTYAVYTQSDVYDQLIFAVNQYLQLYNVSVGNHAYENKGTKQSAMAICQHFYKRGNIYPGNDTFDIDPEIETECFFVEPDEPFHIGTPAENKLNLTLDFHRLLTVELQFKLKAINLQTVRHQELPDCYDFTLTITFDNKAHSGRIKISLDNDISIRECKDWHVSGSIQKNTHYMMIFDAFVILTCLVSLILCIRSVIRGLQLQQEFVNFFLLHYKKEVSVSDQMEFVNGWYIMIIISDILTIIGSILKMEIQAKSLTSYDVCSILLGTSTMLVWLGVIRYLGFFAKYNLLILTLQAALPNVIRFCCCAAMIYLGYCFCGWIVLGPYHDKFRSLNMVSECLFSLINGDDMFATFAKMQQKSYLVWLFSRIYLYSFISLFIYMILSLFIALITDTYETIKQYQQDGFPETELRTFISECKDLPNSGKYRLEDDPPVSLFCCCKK", "assay": "Dose response cell-based high-throughput screening assay for agonists of the transient receptor potential channel ML3 (TRPML3). [Related pubchem assays: 1526, 1424, 1448 ]", "format": "functional"}, "[4]": {"target": "Ion channel NompC (Danio rerio, UniProt Q7T1G6)", "assay": "Fluorescence counterscreen assay for TRPML3 agonists: dose response cell-based high-throughput screening assay to identify agonists of the transient receptor potential channel N1 (TRPN1). [Related pubchem assays: 1526, 1424, 1448 ]", "format": "functional"}, "[5]": {"target": "Peroxisome proliferator-activated receptor gamma/Nuclear receptor coactivator 2 (Homo sapiens, UniProt P37231)", "sequence (P37231 whole entry)": "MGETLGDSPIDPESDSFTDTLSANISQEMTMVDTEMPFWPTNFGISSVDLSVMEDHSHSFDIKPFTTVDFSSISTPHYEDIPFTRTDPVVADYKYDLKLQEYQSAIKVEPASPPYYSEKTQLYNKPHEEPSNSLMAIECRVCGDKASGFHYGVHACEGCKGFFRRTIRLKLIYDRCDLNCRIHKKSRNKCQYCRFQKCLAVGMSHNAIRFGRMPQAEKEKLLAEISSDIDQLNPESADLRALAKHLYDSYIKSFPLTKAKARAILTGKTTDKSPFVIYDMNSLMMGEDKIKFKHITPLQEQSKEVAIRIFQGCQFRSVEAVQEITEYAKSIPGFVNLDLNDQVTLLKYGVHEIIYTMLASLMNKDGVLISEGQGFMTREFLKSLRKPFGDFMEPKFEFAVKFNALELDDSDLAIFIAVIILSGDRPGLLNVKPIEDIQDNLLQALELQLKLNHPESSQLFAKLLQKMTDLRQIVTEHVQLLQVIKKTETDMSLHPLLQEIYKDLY", "sequence (Q15596 whole entry, further chain)": "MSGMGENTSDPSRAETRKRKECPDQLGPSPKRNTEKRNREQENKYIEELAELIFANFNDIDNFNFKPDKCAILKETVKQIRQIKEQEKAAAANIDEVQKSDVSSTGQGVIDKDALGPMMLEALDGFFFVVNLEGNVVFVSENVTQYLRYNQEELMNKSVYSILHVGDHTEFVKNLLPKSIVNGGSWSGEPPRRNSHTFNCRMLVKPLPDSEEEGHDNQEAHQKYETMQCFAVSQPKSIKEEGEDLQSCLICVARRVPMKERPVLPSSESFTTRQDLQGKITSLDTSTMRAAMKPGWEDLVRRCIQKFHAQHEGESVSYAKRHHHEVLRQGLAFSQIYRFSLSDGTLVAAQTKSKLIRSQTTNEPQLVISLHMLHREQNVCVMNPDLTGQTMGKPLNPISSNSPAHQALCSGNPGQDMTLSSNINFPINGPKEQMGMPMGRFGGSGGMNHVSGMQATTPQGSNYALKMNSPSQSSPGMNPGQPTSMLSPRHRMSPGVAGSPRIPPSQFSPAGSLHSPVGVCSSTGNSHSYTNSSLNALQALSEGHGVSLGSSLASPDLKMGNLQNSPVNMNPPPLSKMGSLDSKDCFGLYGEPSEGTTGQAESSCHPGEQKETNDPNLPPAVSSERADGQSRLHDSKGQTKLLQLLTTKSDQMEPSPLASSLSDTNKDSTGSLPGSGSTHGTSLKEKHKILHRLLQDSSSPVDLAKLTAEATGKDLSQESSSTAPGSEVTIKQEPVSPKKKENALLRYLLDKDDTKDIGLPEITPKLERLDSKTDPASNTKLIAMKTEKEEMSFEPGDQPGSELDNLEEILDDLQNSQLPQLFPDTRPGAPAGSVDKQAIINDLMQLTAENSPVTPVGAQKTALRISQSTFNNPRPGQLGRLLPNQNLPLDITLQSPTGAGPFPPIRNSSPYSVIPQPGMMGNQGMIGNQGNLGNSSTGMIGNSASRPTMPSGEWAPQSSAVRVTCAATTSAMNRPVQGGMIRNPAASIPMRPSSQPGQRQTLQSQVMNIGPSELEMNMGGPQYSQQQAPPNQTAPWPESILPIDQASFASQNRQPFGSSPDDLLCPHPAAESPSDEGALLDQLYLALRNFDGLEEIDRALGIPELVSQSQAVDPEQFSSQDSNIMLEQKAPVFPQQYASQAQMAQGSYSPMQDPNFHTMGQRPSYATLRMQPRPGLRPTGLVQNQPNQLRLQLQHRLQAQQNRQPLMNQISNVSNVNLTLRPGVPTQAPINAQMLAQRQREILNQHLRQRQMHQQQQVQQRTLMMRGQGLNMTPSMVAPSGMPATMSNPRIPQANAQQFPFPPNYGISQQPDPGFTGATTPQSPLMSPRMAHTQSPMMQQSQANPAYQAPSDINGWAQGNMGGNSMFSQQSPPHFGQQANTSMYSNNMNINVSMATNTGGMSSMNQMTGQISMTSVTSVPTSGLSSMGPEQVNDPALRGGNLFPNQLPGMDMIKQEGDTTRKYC", "format": "functional"}, "[6]": {"target": "Peroxisome proliferator-activated receptor gamma/Nuclear receptor coactivator 1 (Homo sapiens, UniProt P37231)", "format": "functional"}, "[7]": {"target": "Peroxisome proliferator-activated receptor gamma/Nuclear receptor coactivator 3 (Homo sapiens, UniProt P37231)", "sequence (P37231 whole entry)": "as the sequence (P37231 whole entry) above", "sequence (Q9Y6Q9 whole entry, further chain)": "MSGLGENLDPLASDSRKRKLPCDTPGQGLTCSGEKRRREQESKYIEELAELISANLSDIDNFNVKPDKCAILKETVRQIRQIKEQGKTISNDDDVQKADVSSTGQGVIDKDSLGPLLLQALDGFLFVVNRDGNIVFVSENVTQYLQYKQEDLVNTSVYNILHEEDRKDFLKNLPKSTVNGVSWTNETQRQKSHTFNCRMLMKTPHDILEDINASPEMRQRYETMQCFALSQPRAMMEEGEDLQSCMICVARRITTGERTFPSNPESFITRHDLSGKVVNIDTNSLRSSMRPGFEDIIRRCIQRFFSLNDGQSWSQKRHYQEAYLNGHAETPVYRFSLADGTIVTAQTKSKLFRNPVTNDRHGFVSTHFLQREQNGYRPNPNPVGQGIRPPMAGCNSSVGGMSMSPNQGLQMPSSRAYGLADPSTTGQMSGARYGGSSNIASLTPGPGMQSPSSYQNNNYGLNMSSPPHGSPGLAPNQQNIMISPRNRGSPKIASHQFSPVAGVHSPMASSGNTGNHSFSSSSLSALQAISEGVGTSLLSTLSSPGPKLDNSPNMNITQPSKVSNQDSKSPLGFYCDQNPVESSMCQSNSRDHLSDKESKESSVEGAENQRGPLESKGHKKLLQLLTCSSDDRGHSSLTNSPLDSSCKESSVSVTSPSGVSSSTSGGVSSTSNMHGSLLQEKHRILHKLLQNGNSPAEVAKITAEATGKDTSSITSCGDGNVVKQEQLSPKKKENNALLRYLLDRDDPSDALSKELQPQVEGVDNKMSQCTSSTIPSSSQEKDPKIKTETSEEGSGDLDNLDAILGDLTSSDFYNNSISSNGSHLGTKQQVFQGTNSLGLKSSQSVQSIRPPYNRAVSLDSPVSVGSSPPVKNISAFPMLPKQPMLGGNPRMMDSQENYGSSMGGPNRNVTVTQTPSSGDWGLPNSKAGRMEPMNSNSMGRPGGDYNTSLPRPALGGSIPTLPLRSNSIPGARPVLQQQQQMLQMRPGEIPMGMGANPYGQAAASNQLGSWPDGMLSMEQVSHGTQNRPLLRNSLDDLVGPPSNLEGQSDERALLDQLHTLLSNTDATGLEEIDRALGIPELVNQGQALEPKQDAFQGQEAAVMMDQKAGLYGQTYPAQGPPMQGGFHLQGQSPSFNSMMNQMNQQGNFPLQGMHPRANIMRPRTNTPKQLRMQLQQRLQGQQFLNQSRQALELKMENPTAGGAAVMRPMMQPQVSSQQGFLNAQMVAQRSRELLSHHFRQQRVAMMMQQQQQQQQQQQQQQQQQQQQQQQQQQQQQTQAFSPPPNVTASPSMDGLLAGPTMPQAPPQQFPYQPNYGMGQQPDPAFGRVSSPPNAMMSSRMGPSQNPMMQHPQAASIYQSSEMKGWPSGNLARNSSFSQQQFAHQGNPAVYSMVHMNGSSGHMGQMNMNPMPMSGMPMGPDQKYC", "format": "functional"}, "[8]": {"target": "Glyceraldehyde-3-phosphate dehydrogenase (Homo sapiens, UniProt P04406)", "sequence (P04406 whole entry)": "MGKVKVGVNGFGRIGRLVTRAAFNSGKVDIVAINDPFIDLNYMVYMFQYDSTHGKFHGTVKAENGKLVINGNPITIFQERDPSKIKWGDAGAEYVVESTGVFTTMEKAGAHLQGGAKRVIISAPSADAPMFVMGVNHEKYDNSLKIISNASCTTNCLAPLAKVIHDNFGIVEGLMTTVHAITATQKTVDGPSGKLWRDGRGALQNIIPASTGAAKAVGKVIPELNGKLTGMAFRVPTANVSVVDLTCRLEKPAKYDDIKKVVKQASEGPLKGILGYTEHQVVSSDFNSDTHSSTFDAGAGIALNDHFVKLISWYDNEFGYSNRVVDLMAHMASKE"}, "[9]": {"assay": "inhibitors of firefly luciferase expression or activity, dose response, H4 neuroglioma cells, luminescence (AID 1990)", "format": "functional, cell-based"}, "[10]": {"assay": "luciferase reporter signal reduction – luminescence, H4-C neuroglioblastoma cells, dose response (AID 2458);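 further: H4 neuroglioblastoma cells stably carrying a luciferase reporter gene fusion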", "format": "functional, cell-based"}, "[11]": {"test_system": "BJ", "assay": "cytotoxicity toward BJ-TERT fibroblasts, dose response, cell-based, RAS-independent, luminescence (AID 1933)", "format": "functional", "settings": "Homo sapiens"}, "[12]": {"assay": "cells", "format": "functional, cell-based"}, "[13]": {"assay": "Luminescence Cell-Based Dose Response HTS to Identify Inhibitors of 5'UTR Stem-Loop Driven Prion Protein mRNA Translation in H4 Neuroglioblastoma Cells. [Related pubchem assays: 1827 (Project Summary), 1813 (Primary HTS)]", "format": "functional"}, "[14]": {"assay": "inhibitors of SNCA 5'UTR-driven reporter translation, confirmation, H4 neuroglioma cells, luminescence (AID 1988)", "format": "functional, cell-based"}, "[15]": {"test_system": "BJ", "assay": "cells", "format": "functional, cell-based", "settings": "Homo sapiens"}, "[16]": {"test_system": "BJ", "assay": "cytotoxicity toward BJ-TERT-LT-ST fibroblasts, dose response, cell-based, RAS-independent, luminescence (AID 1935);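 further: BJ fibroblasts immortalized with TERT plus LT and ST oncogenes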", "format": "functional", "settings": "Homo sapiens"}, "[17]": {"assay": "cytotoxicity toward DRD oncogenic fibroblasts, dose response, cell-based, non-viral oncogenic, luminescence (AID 1934)", "format": "functional", "settings": "Homo sapiens"}, "[18]": {"assay": "inhibitors of SNCA 5'UTR-driven translation, confirmation, luminescence, H4 neuroglioblastoma cells, dose confirmation (AID 2454);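 further: H4 neuroglioblastoma cells carrying an alpha-synuclein 5'UTR luciferase reporter; potency for inhibition of the luciferase signal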", "format": "functional, cell-based"}, "[19]": {"assay": "cytotoxicity in HEK-293T cells, dose response, cytotoxicity control for TCR NF-kB inhibitor project, luminescence, T-cell screen hits (AID 489026);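 further: cells exposed to compound about 14 hours before the viability readout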", "format": "functional, cell-based"}}, "note": "The source made the active and inactive calls."}
{"smiles": "O=c1[nH]c(/C=C/c2cccc(Br)c2)nc2ccccc12", "values": [{"measurement": "CC50", "setting": "[1]", "result": "33.4 µM (active)"}]}
{"smiles": "Cc1ccc(N2C(=O)CC(Sc3nc[nH]n3)C2=O)cc1C", "note": "(centres undefined)", "values": [{"measurement": "IC50", "setting": "[2]", "result": "> 50 µM (not active)"}]}
{"smiles": "N#Cc1ccccc1/C=N/Nc1nc(-c2ccccc2)c2cc(Br)ccc2n1", "values": [{"measurement": "CC50", "setting": "[1]", "result": "> 40 µM (active)"}]}
{"smiles": "CCCC(=O)Oc1c(S(=O)(=O)c2ccc(C)cc2)c(C)nn1C(C)(C)C", "values": [{"measurement": "EC50", "setting": "[3]", "result": "2.31 µM (active)"}, {"measurement": "EC50", "setting": "[4]", "result": "> 29.9 µM (not active)"}]}
{"smiles": "COc1cccc(/C=N/NC(=O)c2csc(-n3nc(C)cc3C(F)(F)F)n2)c1", "values": [{"measurement": "EC50", "setting": "[5]", "result": "> 79.4 µM (not active)"}, {"measurement": "EC50", "setting": "[6]", "result": "> 79.4 µM (not active)"}, {"measurement": "EC50", "setting": "[7]", "result": "> 79.4 µM (not active)"}]}
{"smiles": "Cc1cccc(N2C(=O)C(Cl)=C(N3CCN(Cc4ccccc4)CC3)C2=O)c1", "values": [{"measurement": "IC50", "setting": "[8]", "result": "> 50 µM (inconclusive)"}]}
{"smiles": "COc1ccc(C(=O)/N=c2\\sc3ccccc3n2C)cc1OC", "values": [{"measurement": "EC50", "setting": "[5]", "result": "> 79.4 µM (not active)"}, {"measurement": "EC50", "setting": "[6]", "result": "> 79.4 µM (not active)"}, {"measurement": "EC50", "setting": "[7]", "result": "> 79.4 µM (not active)"}]}
{"smiles": "C=CCOC(=O)c1[nH]c2c(c1C)C(=O)CC(c1ccco1)C2", "note": "(centres undefined)", "values": [{"measurement": "EC50", "setting": "[9]", "result": "0.257 µM (active)"}, {"measurement": "EC50", "setting": "[10]", "result": "0.598 µM (active)"}, {"measurement": "EC50", "setting": "[11]", "result": "0.377 µM (inconclusive)"}, {"measurement": "EC50", "setting": "[12]", "result": "1.29 µM (active)"}, {"measurement": "EC50", "setting": "[13]", "result": "0.19 µM (active)"}, {"measurement": "EC50", "setting": "[14]", "result": "< 0.1 µM (active)"}, {"measurement": "EC50", "setting": "[15]", "result": "29.1 µM (inconclusive)"}, {"measurement": "EC50", "setting": "[16]", "result": "0.346 µM (inconclusive)"}, {"measurement": "EC50", "setting": "[17]", "result": "0.374 µM (active)"}, {"measurement": "EC50", "setting": "[18]", "result": "0.822 µM (active)"}, {"measurement": "IC50", "setting": "[19]", "result": "> 80 µM (inactive)"}]}
{"smiles": "O=C(c1cc(-c2cc(F)c(Cl)cc2Cl)n[nH]1)N(CCO)CCO", "values": [{"measurement": "IC50", "setting": "[8]", "result": "> 10 µM (inconclusive)"}]}
